According to patent US9359308B2, “Pyrazine kinase inhibitors” (Portola Pharmaceuticals, Inc., priority 2011, dated 2016):

target: T1, full length active recombinant SYK enzyme (Homo sapiens, UniProt P43405); assay: Inhibition of Syk tyrosine phosphorylation activity (LANCE TR-FRET kinase assay); type: biochemical; details: activity in the Syk assays, class symbols
T1 construct: full length active recombinant SYK enzyme (Millipore, Calif.); purchased Millipore
How it was run: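 IC50 was derived by non-linear regression of TR-FRET signal (Eu-W1024-PY100 donor, streptavidin-APC acceptor) read 1 h after EDTA quench. The kinase step ran 1 h at room temperature with 1 nM full-length SYK, 550 nM biotinylated DEEDYESP substrate and 100 μM ATP in Tris pH 7.5/MgCl2/DTT at 3% final DMSO.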

IC50	Compound
1 to 10 nM	COc1ccc(Nc2nc(N[C@@H]3CCCC(F)(F)[C@@H]3N)cnc2C(N)=O)cc1OC [Example 165, 5-((1R,2R)-2-amino-3,3-difluorocyclohexylamino)-3-(3,4-dimethoxyphenylamino)pyrazine-2-carboxamide]
1 to 10 nM	CS(=O)(=O)c1ccc(Nc2nc(N[C@H](CC3CC3)C(N)=O)cnc2C(N)=O)cc1 [Example 166, (R)-5-(1-amino-3-cyclopropyl-1-oxopropan-2-ylamino)-3-(4-(methylsulfonyl)phenylamino)pyrazine-2-carboxamide]
10 to 100 nM	CS(=O)(=O)c1ccc(Nc2nc(N[C@@H]3CCCC(F)(F)[C@@H]3N)cnc2C(N)=O)cc1 [Example 167, 5-((1R,2R)-2-amino-3,3-difluorocyclohexylamino)-3-(4-(methylsulfonyl)phenylamino)pyrazine-2-carboxamide]
10 to 100 nM	COc1cc(Nc2nc(N[C@@H]3CCCC(F)(F)[C@@H]3N)cnc2C(N)=O)cc(OC)c1 [Example 168, 5-((1R,2R)-2-amino-3,3-difluorocyclohexylamino)-3-(3,5-dimethoxyphenylamino)pyrazine-2-carboxamide]
1 to 10 nM	Cc1ccc(Nc2nc(N[C@@H]3CCCC(F)(F)[C@@H]3N)cnc2C(N)=O)cc1C [Example 169, 5-((1R,2R)-2-amino-3,3-difluorocyclohexylamino)-3-(3,4-dimethylphenylamino)pyrazine-2-carboxamide]
10 to 100 nM	CC[C@@H](Nc1cnc(C(N)=O)c(Nc2ccc(S(=O)(=O)N(C)C)cc2)n1)C(N)=O [Example 170, (R)-5-(1-amino-1-oxobutan-2-ylamino)-3-(4-(N,N-dimethylsulfamoyl)phenylamino)pyrazine-2-carboxamide]
1 to 10 nM	COc1ccc(Nc2nc(N[C@H](CC3CC3)C(N)=O)cnc2C(N)=O)cc1OC [Example 171, (R)-5-(1-amino-3-cyclopropyl-1-oxopropan-2-ylamino)-3-(3,4-dimethoxyphenylamino)pyrazine-2-carboxamide]
1 to 10 nM	Cc1ccc(Nc2nc(N[C@H](CC3CC3)C(N)=O)cnc2C(N)=O)cc1C [Example 172, (R)-5-(1-amino-3-cyclopropyl-1-oxopropan-2-ylamino)-3-(3,4-dimethylphenylamino)pyrazine-2-carboxamide]
10 to 100 nM	CC[C@@H](Nc1cnc(C(N)=O)c(Nc2cnn(-c3ccccc3)c2)n1)C(N)=O [Example 173, (R)-5-(1-amino-1-oxobutan-2-ylamino)-3-(1-phenyl-1H-pyrazol-4-ylamino)pyrazine-2-carboxamide]
10 to 100 nM	Cc1ccc(Nc2nc(N[C@H](CC3CC3)C(N)=O)cnc2C(N)=O)cc1 [Example 174, (R)-5-(1-amino-3-cyclopropyl-1-oxopropan-2-ylamino)-3-(p-tolylamino)pyrazine-2-carboxamide]
1 to 10 nM	NC(=O)c1ncc(NC2(C(N)=O)CC2)nc1Nc1cnc2ccc(F)cc2c1 [Example 175, 5-(1-carbamoylcyclopropylamino)-3-(6-fluoroquinolin-3-ylamino)pyrazine-2-carboxamide]
10 to 100 nM	NC(=O)c1ncc(NC[C@@H](N)CC(F)F)nc1Nc1cccc(-c2ncccn2)c1 [Example 176, (S)-5-(2-amino-4,4-difluorobutylamino)-3-(3-(pyrimidin-2-yl)phenylamino)pyrazine-2-carboxamide]
10 to 100 nM	CC[C@@H](Nc1cnc(C(N)=O)c(Nc2cncc(C)c2)n1)C(N)=O [Example 177, (R)-5-(1-amino-1-oxobutan-2-ylamino)-3-(5-methylpyridin-3-ylamino)pyrazine-2-carboxamide]
10 to 100 nM	CC[C@@H](Nc1cnc(C(N)=O)c(Nc2ccnc(C)c2)n1)C(N)=O [Example 178, (R)-5-(1-amino-1-oxobutan-2-ylamino)-3-(2-methylpyridin-4-ylamino)pyrazine-2-carboxamide]
10 to 100 nM	CC[C@@H](Nc1cnc(C(N)=O)c(Nc2cc(C)nc(C)c2)n1)C(N)=O [Example 179, (R)-5-(1-amino-1-oxobutan-2-ylamino)-3-(2,6-dimethylpyridin-4-ylamino)pyrazine-2-carboxamide]
> 1000 nM	CC(C)C[C@@H](Nc1cnc(C(N)=O)c(Nc2ccn(C)n2)n1)C(N)=O [Example 180, (R)-5-(1-amino-4-methyl-1-oxopentan-2-ylamino)-3-(1-methyl-1H-pyrazol-3-ylamino)pyrazine-2-carboxamide]
10 to 100 nM	CC[C@@H](Nc1cnc(C(N)=O)c(Nc2cccnc2)n1)C(N)=O [Example 181, (R)-5-(1-amino-1-oxobutan-2-ylamino)-3-(pyridin-3-ylamino)pyrazine-2-carboxamide]
10 to 100 nM	CC[C@@H](Nc1cnc(C(N)=O)c(Nc2cncc(F)c2)n1)C(N)=O [Example 182, (R)-5-(1-amino-1-oxobutan-2-ylamino)-3-(5-fluoropyridin-3-ylamino)pyrazine-2-carboxamide]
10 to 100 nM	Cc1cccc(Nc2nc(N[C@H]3CC[C@@H](N)CC3)cnc2C(N)=O)c1 [Example 183, 5-((1s,4s)-4-aminocyclohexylamino)-3-(m-tolylamino)pyrazine-2-carboxamide]

IC50	Compound
1 to 10 nM	NC(=O)c1ncc(N[C@H]2CC[C@@H](N)CC2)nc1Nc1cccc(-c2ncccn2)c1 [Example 184, 5-((1s,4s)-4-aminocyclohexylamino)-3-(3-(pyrimidin-2-yl)phenylamino)pyrazine-2-carboxamide]
10 to 100 nM	NC(=O)c1ncc(N[C@H]2CC[C@@H](N)CC2)nc1Nc1cnc2ccccc2c1 [Example 185, 5-((1s,4s)-4-aminocyclohexylamino)-3-(quinolin-3-ylamino)pyrazine-2-carboxamide]
10 to 100 nM	Cn1cc(Nc2nc(N[C@@H]3CCCC[C@@H]3N)cnc2C(N)=O)cn1 [Example 186, 5-((1R,2S)-2-aminocyclohexylamino)-3-(1-methyl-1H-pyrazol-4-ylamino)pyrazine-2-carboxamide]
1 to 10 nM	NC(=O)c1ncc(N[C@H]2CC[C@@H](N)CC2)nc1Nc1ccc2ncccc2c1 [Example 187, 5-((1s,4s)-4-aminocyclohexylamino)-3-(quinolin-6-ylamino)pyrazine-2-carboxamide]
1 to 10 nM	NC(=O)c1ncc(NC2CCC(N)CC2)nc1Nc1cccc(-n2nccn2)c1 (stereo not shown) [Example 188, 3-(3-(2H-1,2,3-triazol-2-yl)phenylamino)-5-((1r,4r)-4-aminocyclohexylamino)pyrazine-2-carboxamide]
1 to 10 nM	CC(C)[C@@H](Nc1cnc(C(N)=O)c(Nc2ccc3cnccc3c2)n1)C(N)=O [Example 189, (R)-5-(1-amino-3-methyl-1-oxobutan-2-ylamino)-3-(isoquinolin-6-ylamino)pyrazine-2-carboxamide]
1 to 10 nM	NC(=O)c1ncc(N[C@@H](C(N)=O)C2CC2)nc1Nc1ccc2cnccc2c1 [Example 190, (R)-5-(2-amino-1-cyclopropyl-2-oxoethylamino)-3-(isoquinolin-6-ylamino)pyrazine-2-carboxamide]
1 to 10 nM	CC(C)(C)[C@@H](Nc1cnc(C(N)=O)c(Nc2cnc3ccccc3c2)n1)C(N)=O [Example 191, (R)-5-(1-amino-3,3-dimethyl-1-oxobutan-2-ylamino)-3-(quinolin-3-ylamino)pyrazine-2-carboxamide]
1 to 10 nM	CC(C)(C)[C@@H](Nc1cnc(C(N)=O)c(Nc2ccc3ncccc3c2)n1)C(N)=O [Example 192, (R)-5-(1-amino-3,3-dimethyl-1-oxobutan-2-ylamino)-3-(quinolin-6-ylamino)pyrazine-2-carboxamide]
10 to 100 nM	CC(C)[C@@H](Nc1cnc(C(N)=O)c(Nc2cnc3cccnc3c2)n1)C(N)=O [Example 193, (R)-3-(1,5-naphthyridin-3-ylamino)-5-(1-amino-3-methyl-1-oxobutan-2-ylamino)pyrazine-2-carboxamide]
1 to 10 nM	CC(C)[C@@H](Nc1cnc(C(N)=O)c(Nc2cnc3ccncc3c2)n1)C(N)=O [Example 194, (R)-3-(1,6-naphthyridin-3-ylamino)-5-(1-amino-3-methyl-1-oxobutan-2-ylamino)pyrazine-2-carboxamide]
1 to 10 nM	CC(C)[C@@H](Nc1cnc(C(N)=O)c(Nc2ccc3ccncc3c2)n1)C(N)=O [Example 195, (R)-5-(1-amino-3-methyl-1-oxobutan-2-ylamino)-3-(isoquinolin-7-ylamino)pyrazine-2-carboxamide]
10 to 100 nM	CC(C)C[C@@H](Nc1cnc(C(N)=O)c(Nc2cncc(C(F)(F)F)c2)n1)C(N)=O [Example 196, (R)-5-(1-amino-4-methyl-1-oxopentan-2-ylamino)-3-(5-(trifluoromethyl)pyridin-3-ylamino)pyrazine-2-carboxamide]
1 to 10 nM	NC(=O)c1ncc(N[C@@H]2CCCC[C@@H]2N)nc1Nc1cncc(C(F)(F)F)c1 [Example 197, 5-((1R,2S)-2-aminocyclohexylamino)-3-(5-(trifluoromethyl)pyridin-3-ylamino)pyrazine-2-carboxamide]
1 to 10 nM	NC(=O)c1ncc(N[C@@H]2CCCC[C@@H]2N)nc1Nc1cnc2ccc(F)cc2c1 [Example 198, 5-((1R,2S)-2-aminocyclohexylamino)-3-(6-fluoroquinolin-3-ylamino)pyrazine-2-carboxamide]
1 to 10 nM	NC(=O)c1ncc(N[C@@H]2CCCC[C@@H]2N)nc1Nc1cccc(C(F)(F)F)c1 [Example 199, 5-((1R,2S)-2-aminocyclohexylamino)-3-(3-(trifluoromethyl)phenylamino)pyrazine-2-carboxamide]
1 to 10 nM	CC(C)[C@@H](Nc1cnc(C(N)=O)c(Nc2cnc3ccc(F)cc3c2)n1)C(N)=O [Example 200, (R)-5-(1-amino-3-methyl-1-oxobutan-2-ylamino)-3-(6-fluoroquinolin-3-ylamino)pyrazine-2-carboxamide]
1 to 10 nM	NC(=O)c1ncc(N[C@@H]2CCCC[C@@H]2N)nc1Nc1cnc2cc(F)ccc2c1 [Example 201, 5-((1R,2S)-2-aminocyclohexylamino)-3-(7-fluoroquinolin-3-ylamino)pyrazine-2-carboxamide]
